Assay results: patent US11124537B2, “Inhibitors of glucocorticoid receptor” (ORIC Pharmaceuticals, Inc., priority 2015, dated 2021)

test system: AR; assay: In Vitro AR Agonism Assay; format: cell-based; conditions: LNAR reporter cell line, 10% CSS, 18-24 hrs; ratio of maximum response to that of Mifepristone (set to 1)
Experimental: Example 5: In Vitro AR Agonism Assay
The AR agonism assay was done in the LNAR reporter cell line which has overexpressed AR and 4XARE-Luc genes. This cell line is sensitive to even minor partial AR agonism activity in hormone-deprived media (CSS). The assays were done in RPMI (without phenol red)+10% CSS using 6000 LNAR cells/well in 384-well plates and compounds were incubated with cells in […] incubator for 18-24 hrs. OneGlo reagent (25 uL/well) was added and plates were read with luminometer within 3 minutes.
To gauge the AR partial agonism activity, Mifepristone is included as a standard in the assay. AR agonism assay results are quantified by determining the ratio of the maximum response of individual compounds to the maximum response of Mifepristone (arbitrarily set to 1). Values of Table 4 are reported as Relative Maximum Response to Mifepristone. This general trend of AR agonism was shown for the class of compounds described herein.

| Compound | Relative Maximum Response to Mifepristone |
| --- | --- |
| CN(C)c1ccc([C@H]2C[C@@]3(C)[C@@H](CC[C@@]3(O)C#Cc3ccccc3)[C@@H]3CCC4=CC(=O)CCC4=C32)cc1 [drawing 366] | A (A: ≤0.4) |
| CC(C)(C)C#C[C@]1(O)CC[C@H]2[C@@H]3CCC4=CC(=O)CCC4=C3[C@@H](c3ccc(C(C)(C)C)cc3)C[C@@]21C [drawing 367] | A (A: ≤0.4) |
| CC(C)(C)C#C[C@]1(O)CC[C@H]2[C@@H]3CCC4=CC(=O)CCC4=C3[C@@H](c3ccc(N4CCCC4)cc3)C[C@@]21C [drawing 368] | A (A: ≤0.4) |
| CC(C)(C)C#C[C@]1(O)CC[C@H]2[C@@H]3CCC4=CC(=O)CCC4=C3[C@@H](c3cccc(C4CC4)c3)C[C@@]21C [drawing 369] | A (A: ≤0.4) |
| CN(C)c1ccc([C@H]2C[C@@]3(C)[C@@H](CC[C@@]3(O)C#CC(C)(C)C)[C@@H]3CCC4=CC(=O)CCC4=C32)cc1F [drawing 370] | A (A: ≤0.4) |
| Cc1cc([C@H]2C[C@@]3(C)[C@@H](CC[C@@]3(O)C#CC(C)(C)C)[C@@H]3CCC4=CC(=O)CCC4=C32)ccc1N(C)C [drawing 371] | A (A: ≤0.4) |
| Cc1c(F)cc([C@H]2C[C@@]3(C)[C@@H](CC[C@@]3(O)C#Cc3ccc(S(C)(=O)=O)cc3)[C@@H]3CCC4=CC(=O)CCC4=C32)cc1F [drawing 372] | A (A: ≤0.4) |
| CC(C)C#C[C@]1(O)CC[C@H]2[C@@H]3CCC4=CC(=O)CCC4=C3[C@@H](c3c(F)cc(N4CCOCC4)cc3F)C[C@@]21C [drawing 373] | A (A: ≤0.4) |
| CC(C)C#C[C@]1(O)CC[C@H]2[C@@H]3CCC4=CC(=O)CCC4=C3[C@@H](c3cc(F)c(C(C)C)c(F)c3)C[C@@]21C [drawing 374] | A (A: ≤0.4) |
| CN(C)c1ccc([C@H]2C[C@@]3(C)[C@@H](CC[C@@]3(O)C#CC3CC3)[C@@H]3CCC4=CC(=O)CCC4=C32)c(F)c1F [drawing 375] | A (A: ≤0.4) |
| CN(C)c1cc(F)c([C@H]2C[C@@]3(C)[C@@H](CC[C@@]3(O)C#CC(C)(C)C)[C@@H]3CCC4=CC(=O)CCC4=C32)cc1F [drawing 376] | A (A: ≤0.4) |
| CCC#C[C@]1(O)CC[C@H]2[C@@H]3CCC4=CC(=O)CCC4=C3[C@@H](c3ccc4c(c3)OCCO4)C[C@@]21C [drawing 377] | A (A: ≤0.4) |
| CC(C)(C)C#C[C@]1(O)CC[C@H]2[C@@H]3CCC4=CC(=O)CCC4=C3[C@@H](c3ccc4c(c3)OCO4)C[C@@]21C [drawing 378] | A (A: ≤0.4) |
| C[C@@H]1C[C@H]2[C@@H]3CCC4=CC(=O)CCC4=C3[C@@H](c3ccc(N(C)C)cc3)C[C@]2(C)[C@]1(O)C#CC(C)(C)C [drawing 379] | A (A: ≤0.4) |
| COC(C)(C)C#C[C@]1(O)CC[C@H]2[C@@H]3CCC4=CC(=O)CCC4=C3[C@@H](c3ccc(N4CCCC4)cc3)C[C@@]21C [drawing 380] | A (A: ≤0.4) |
| COC1CN(c2ccc([C@H]3C[C@@]4(C)[C@@H](CC[C@@]4(O)C#CC(C)(C)C)[C@@H]4CCC5=CC(=O)CCC5=C43)cc2)C1 [drawing 381] | A (A: ≤0.4) |
| CC(C)(C)C#C[C@]1(O)CC[C@H]2[C@@H]3CCC4=CC(=O)CCC4=C3[C@@H](c3ccc(N4CCN(S(C)(=O)=O)CC4)cc3)C[C@@]21C [drawing 382] | B (B: >0.4) |
| CN(C)c1ccc([C@H]2C[C@@]3(C)[C@@H](CC[C@@]3(O)C#Cc3ccc(S(C)(=O)=O)cc3)[C@@H]3CCC4=CC(=O)CCC4=C32)cc1 [drawing 383] | B (B: >0.4) |
| CN(C)c1ccc([C@H]2C[C@@]3(C)[C@@H](CC[C@@]3(O)C#CC3(C)COC3)[C@@H]3CCC4=CC(=O)CCC4=C32)cc1 [drawing 384] | A (A: ≤0.4) |
| CC(C)(C)C#C[C@]1(O)CC[C@H]2[C@@H]3CCC4=CC(=O)CCC4=C3[C@@H](c3ccc(N4CCC[C@@H]4CO)cc3)C[C@@]21C [drawing 385] | A (A: ≤0.4) |

same assay, conditions: LNAR reporter cell line; in concentrations as low as 10 nM

| Compound | partial AR agonism |
| --- | --- |
| CC#C[C@]1(O)CC[C@H]2[C@@H]3CCC4=CC(=O)CCC4=C3[C@@H](c3ccc(N(C)C)cc3)C[C@@]21C [Mifepristone, reference compound] | strong partial AR agonism |
